Experimental data taken from paper PMC6212553, “Baicalein Enhances the Oral Bioavailability and Hepatoprotective Effects of Silybin Through the Inhibition of Efflux Transporters BCRP and MRP2” (Frontiers in Pharmacology, 2018).
Where two headings read alike, the source gives them in different places.

Experiment: Bidirectional transport of silybin across Caco-2 cell monolayers
Type: in vitro ADME, Human
Details: human
Protocol: Human colon epithelial cell line (Caco-2) was purchased from American Type Culture Collection (Manassas, VA, United States) and frozen at -80°C. Wild type MDCK II, MDR1-MDCK II, BCRP-MDCK II, and MRP2-MDCK II cells were kindly supplied by the Netherlands Cancer Institute (Amsterdam, Netherlands). Transport study was carried out with Caco-2 cells, and MDCK II cells were transfected using a previously established method with slight modifications ([Yuan et al., 2017]). The Caco-2 cells were cultured at 37°C/5% CO2 in Dulbecco's modified Eagle's medium (DMEM) supplemented with 10% fetal bovine serum, 1% nonessential amino acids, and 1% penicillin-streptomycin. The Caco-2 cells were seeded onto polyester filter membranes in a 12-well Transwell® plate (Corning Costar Co., NY, United States) with 0.6 × 10^5 cells/cm^2. The monolayer cells were used for transport assays between 21 and 23 days. The MDCKII cells were seeded on transwell plates with a density of 2.0 × 10^5 cells/cm^2 and grown for 4-5 days to form a confluent monolayer. Bidirectional transport assays for Caco-2 and MDCK II cells were performed by adding silybin (10 μM) in assay buffer into either the apical (AP; A-to-B) or basolateral (BL; […] For inhibition studies, Caco-2 or MDCK II cell monolayers in both apical and basolateral chambers were preincubated with the inhibitor for 30 min. The fluorescence intensity of the sample collected from the AP or BL side was immediately detected in a 96-well black plate by the Microplate UV/VIS spectrophotometer (TECAN Infinite […], Männedorf, Switzerland). For liquid chromatography tandem-mass spectrometry (LC-MS/MS) analysis, the sample (100 μl) was mixed with methanol (50 μl) containing internal standard (25 ng/ml) and was stored at -80°C. The formula for calculating apparent permeability coefficient (Papp) values is as follows: (1) […] where dQ/dt (mM/s) represents the rate of permeation of the drug across the cells, C0 (mM) refers to the concentration in the donor compartment at time zero calculated from dosing solution, and A (cm^2) refers to the area of the cell monolayer. Papp (B-A) is the Papp value measured in the B to A direction, and Papp (A-B) is the Papp value measured in the A to B direction. The efflux ratio is given as ER = Papp (B to A)/Papp (A to B).

[1] = Caco-2, silybin 10 μM, co-treatment with baicalein 5 μM, read-out: efflux ratio
[2] = Caco-2 model, silybin alone, read-out: mean efflux ratio

efflux ratio at 180 min, 10 μM [1] | efflux ratio at 180 min, 10 μM [2] | SMILES
2.38 ± 0.27 | 5.62 | COc1cc([C@H]2Oc3cc([C@H]4Oc5cc(O)cc(O)c5C(=O)[C@@H]4O)ccc3O[C@@H]2CO)ccc1O [silybin A]
2.33 ± 0.09 | 5.13 | COc1cc([C@@H]2Oc3cc([C@H]4Oc5cc(O)cc(O)c5C(=O)[C@@H]4O)ccc3O[C@H]2CO)ccc1O [silybin B]
